Test in all cases: Radial diffusion assay
Conditions in all cases: 5 µl of 500 µM per 3 mm well, 37 °C, mean ± SD

In assay [1] the test system is C. albicans. The format is cell-based, Candida albicans (TIMM, 1768). The text has this: (§1) The microbial strains used in this study were Bacillus subtilis (ATCC, 11774), Candida albicans (TIMM, 1768), Enterococcus faecalis (ATCC, 33186), Escherichia coli (ATCC, 11775), Klebsiella pneumoniae (ATCC, 13883), Methicillin-resistant Staphylococcus aureus (ATCC, BAA-41), Pseudomonas aeruginosa (ATCC, 10145), Salmonella enterica (ATCC, 14028), Serratia marcescens (ATCC, 13880), Staphylococcus aureus (ATCC, 25923) and Vibrio parahaemolyticus (ATCC, 17802). All microbial strains were cultivated overnight at 37 °C and 200 rpm, then subcultured and incubated for 3 h under the same incubation conditions to obtain the mid-logarithmic growth phase. The cultivated cells were washed twice with 10 mM Tris–HCl containing 5 mM D-glucose at pH 7.4 and suspended in the same buffer to be used in different assays, as previously described.
(§2) The antimicrobial activity spectra of the selected cryptides were screened against all the mentioned microbial pathogens, except V. parahaemolyticus, by radial diffusion assay as previously described, with slight modifications. […] The plates were then incubated for 18 h, and the antimicrobial activities were measured in the absolute unit (AU), as previously described. […]
(§3) plate. The plates were then incubated for 12 h at 37 °C and antimicrobial activities were measured in the term of absolute unit (A.U). […]

Assay [2] has as its system E. faecalis. The format is cell-based, Enterococcus faecalis (ATCC, 33186).
Text: as §1, §2, §3

Assay [3] concerns S. enterica. Format: cell-based, Salmonella enterica (ATCC, 14028).
Text: as §1, §2, §3

For “RHCLRSKRPPNVCPH [AD4, cationic cryptide from P. vannamei precursor DN34505 (Pl-crustin 2), chemically synthesised]”, the “Antifungal activity (inhibition zone) C. albicans” value in assay [1] is listed as 2.1 ± 0.5 A.U. Besides, the “Antimicrobial activity (inhibition zone) E. faecalis” value in assay [2] is 14.7 ± 1.2 A.U. Moreover, the “Antimicrobial activity (inhibition zone) S. enterica” value in assay [3] is on record as 7.7 ± 1 A.U.

Source of the values: publication PMC10482825 (Scientific Reports, 2023).
